{"source": "paper PMC7614683", "about": "“A small molecule PI3Kα activator for cardioprotection and neuroregeneration” (Nature, 2023)", "experiment_in_all_cases": "SelectScreen Z-LYTE kinase activity assay (SI Table 6)", "format_in_all_cases": "biochemical", "key": {"[1]": {"target": "protein kinases of the Z-LYTE panel (Homo sapiens, UniProt Q13464)", "sequence (Q13464 whole entry)": "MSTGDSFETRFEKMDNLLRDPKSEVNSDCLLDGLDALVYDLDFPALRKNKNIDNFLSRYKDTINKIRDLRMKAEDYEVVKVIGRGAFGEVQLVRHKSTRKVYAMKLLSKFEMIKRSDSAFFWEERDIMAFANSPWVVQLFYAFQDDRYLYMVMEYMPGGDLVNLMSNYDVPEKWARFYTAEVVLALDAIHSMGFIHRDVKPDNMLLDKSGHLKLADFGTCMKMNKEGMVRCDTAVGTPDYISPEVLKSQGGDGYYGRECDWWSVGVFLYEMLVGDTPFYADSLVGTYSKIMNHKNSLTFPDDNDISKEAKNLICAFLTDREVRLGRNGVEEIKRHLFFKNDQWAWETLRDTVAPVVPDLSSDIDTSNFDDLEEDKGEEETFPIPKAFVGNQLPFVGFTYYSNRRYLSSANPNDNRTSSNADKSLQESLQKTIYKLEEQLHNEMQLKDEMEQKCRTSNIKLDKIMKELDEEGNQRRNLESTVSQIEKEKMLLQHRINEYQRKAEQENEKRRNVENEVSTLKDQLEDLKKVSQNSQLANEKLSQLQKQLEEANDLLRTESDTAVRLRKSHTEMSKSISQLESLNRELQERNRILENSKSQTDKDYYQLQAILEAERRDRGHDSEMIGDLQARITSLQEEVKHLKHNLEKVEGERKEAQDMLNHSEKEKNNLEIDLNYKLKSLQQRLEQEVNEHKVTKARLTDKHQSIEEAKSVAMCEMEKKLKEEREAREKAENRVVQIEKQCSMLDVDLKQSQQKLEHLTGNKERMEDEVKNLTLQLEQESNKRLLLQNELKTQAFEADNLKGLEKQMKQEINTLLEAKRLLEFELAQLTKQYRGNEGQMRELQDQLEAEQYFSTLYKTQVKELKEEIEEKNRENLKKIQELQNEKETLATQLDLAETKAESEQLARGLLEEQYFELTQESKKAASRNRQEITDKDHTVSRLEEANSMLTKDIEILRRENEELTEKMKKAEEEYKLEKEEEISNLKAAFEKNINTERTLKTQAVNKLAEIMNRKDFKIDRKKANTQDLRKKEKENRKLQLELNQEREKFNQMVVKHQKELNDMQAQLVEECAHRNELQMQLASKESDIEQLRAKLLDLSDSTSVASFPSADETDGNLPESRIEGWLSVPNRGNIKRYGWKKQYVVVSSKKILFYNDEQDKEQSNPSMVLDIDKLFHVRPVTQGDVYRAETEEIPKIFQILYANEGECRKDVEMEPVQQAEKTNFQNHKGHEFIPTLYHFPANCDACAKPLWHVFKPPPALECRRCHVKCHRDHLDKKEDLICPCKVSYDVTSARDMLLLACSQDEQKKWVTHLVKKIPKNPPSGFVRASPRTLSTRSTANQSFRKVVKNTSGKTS", "outline": "(§1)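 Single-point profiling, 1 μM 1938; LanthaScreen binding, Adapta or Z-LYTE read-outs; 133 protein + 7 lipid kinases.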"}, "[2]": {"target": "protein kinases of the Z-LYTE panel (Homo sapiens, UniProt P45983)", "sequence (P45983 whole entry)": "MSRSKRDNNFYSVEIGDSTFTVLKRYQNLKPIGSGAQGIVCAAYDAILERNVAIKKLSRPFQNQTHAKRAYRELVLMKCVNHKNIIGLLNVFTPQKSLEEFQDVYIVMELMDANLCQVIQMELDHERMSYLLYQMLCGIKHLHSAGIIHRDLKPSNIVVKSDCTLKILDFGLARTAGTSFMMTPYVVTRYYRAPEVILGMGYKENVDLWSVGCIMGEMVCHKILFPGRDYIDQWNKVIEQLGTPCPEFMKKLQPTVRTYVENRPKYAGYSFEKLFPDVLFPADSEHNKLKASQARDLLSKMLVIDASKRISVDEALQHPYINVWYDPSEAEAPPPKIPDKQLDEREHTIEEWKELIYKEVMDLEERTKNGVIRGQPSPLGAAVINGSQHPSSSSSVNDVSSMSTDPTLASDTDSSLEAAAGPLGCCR", "settings": "MAPK8 (JNK1), 1000 nM, [ATP] 100 μM", "outline": "as §1"}, "[3]": {"target": "T1, protein kinases of the Z-LYTE panel (Homo sapiens, UniProt P36896)", "T1 sequence (P36896 24-505)": "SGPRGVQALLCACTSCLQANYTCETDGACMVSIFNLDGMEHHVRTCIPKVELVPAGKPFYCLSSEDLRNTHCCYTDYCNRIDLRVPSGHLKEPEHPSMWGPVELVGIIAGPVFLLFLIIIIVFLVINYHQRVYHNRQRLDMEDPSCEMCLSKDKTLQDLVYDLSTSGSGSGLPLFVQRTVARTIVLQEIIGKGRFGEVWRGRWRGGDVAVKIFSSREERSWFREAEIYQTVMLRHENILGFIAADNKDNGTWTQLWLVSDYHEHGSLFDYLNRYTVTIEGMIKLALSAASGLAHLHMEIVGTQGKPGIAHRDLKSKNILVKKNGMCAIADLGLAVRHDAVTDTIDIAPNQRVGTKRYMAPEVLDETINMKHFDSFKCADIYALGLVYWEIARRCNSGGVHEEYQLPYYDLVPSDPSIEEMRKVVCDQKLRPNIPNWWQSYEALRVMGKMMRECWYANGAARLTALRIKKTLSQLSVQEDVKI", "outline": "as §1"}, "[4]": {"target": "protein kinases of the Z-LYTE panel (Homo sapiens, UniProt Q16539)", "sequence (Q16539 whole entry)": "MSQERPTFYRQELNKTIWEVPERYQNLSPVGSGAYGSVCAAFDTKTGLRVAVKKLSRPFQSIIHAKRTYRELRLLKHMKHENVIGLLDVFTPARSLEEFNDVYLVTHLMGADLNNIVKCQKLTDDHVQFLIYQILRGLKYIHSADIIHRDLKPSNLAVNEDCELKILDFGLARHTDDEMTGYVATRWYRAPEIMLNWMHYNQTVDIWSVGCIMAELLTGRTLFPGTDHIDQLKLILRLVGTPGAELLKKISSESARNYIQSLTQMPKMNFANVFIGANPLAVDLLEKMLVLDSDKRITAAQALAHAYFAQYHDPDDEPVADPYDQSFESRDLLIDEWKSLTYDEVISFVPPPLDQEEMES", "outline": "as §1"}, "[5]": {"target": "protein kinases of the Z-LYTE panel (Homo sapiens, UniProt P14616)", "sequence (P14616 27-1297)": "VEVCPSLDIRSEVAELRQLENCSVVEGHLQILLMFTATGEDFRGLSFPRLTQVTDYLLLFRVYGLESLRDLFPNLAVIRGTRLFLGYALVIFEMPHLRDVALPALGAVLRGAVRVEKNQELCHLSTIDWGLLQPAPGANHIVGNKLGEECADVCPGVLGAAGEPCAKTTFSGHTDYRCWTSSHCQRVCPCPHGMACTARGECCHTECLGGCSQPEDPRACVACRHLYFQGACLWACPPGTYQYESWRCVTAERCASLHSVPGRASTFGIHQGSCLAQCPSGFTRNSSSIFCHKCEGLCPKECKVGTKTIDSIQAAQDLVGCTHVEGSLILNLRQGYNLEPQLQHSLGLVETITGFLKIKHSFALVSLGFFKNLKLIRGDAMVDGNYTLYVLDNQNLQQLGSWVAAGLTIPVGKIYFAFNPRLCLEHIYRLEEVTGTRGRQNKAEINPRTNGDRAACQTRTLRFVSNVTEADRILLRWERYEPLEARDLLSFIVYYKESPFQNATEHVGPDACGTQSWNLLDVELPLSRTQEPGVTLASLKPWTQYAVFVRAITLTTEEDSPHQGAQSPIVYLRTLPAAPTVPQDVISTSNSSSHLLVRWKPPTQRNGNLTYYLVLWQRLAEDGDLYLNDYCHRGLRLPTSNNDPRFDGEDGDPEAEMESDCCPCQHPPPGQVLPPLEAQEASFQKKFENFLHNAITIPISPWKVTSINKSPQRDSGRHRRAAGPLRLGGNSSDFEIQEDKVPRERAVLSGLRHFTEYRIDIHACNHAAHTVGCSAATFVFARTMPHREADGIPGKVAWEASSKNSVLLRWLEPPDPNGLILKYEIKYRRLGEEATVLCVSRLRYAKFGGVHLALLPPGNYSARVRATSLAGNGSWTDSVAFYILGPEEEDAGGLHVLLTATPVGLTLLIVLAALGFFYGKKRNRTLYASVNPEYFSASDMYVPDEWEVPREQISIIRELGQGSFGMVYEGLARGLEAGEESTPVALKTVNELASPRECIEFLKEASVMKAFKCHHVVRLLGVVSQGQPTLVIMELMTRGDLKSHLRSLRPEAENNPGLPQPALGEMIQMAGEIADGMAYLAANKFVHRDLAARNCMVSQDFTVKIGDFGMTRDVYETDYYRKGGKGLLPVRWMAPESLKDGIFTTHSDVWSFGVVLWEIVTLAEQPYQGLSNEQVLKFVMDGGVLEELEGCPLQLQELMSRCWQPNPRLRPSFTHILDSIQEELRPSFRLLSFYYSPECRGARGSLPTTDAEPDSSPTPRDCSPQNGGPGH", "outline": "as §1"}, "[6]": {"target": "protein kinases of the Z-LYTE panel (Homo sapiens, UniProt P49841)", "sequence (P49841 whole entry)": "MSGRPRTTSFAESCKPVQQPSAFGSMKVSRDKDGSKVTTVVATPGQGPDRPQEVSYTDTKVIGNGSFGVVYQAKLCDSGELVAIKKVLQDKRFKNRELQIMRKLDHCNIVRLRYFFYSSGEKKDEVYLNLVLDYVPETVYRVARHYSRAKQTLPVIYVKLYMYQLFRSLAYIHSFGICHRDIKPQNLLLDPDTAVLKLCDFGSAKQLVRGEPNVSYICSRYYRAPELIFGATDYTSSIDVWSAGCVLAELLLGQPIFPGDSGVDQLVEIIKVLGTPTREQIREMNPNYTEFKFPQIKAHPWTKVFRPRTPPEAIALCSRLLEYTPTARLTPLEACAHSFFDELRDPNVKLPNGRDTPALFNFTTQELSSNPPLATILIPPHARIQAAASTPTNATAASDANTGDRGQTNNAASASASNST", "outline": "as §1"}, "[7]": {"target": "protein kinases of the Z-LYTE panel (Homo sapiens, UniProt P54646)", "outline": "as §1"}, "[8]": {"target": "protein kinases of the Z-LYTE panel (Homo sapiens, UniProt P24941)", "outline": "as §1"}, "[9]": {"target": "protein kinases of the Z-LYTE panel (Homo sapiens, UniProt Q13153)", "outline": "as §1"}, "[10]": {"target": "protein kinases of the Z-LYTE panel (Homo sapiens, UniProt Q15303)", "outline": "as §1"}, "[11]": {"target": "protein kinases of the Z-LYTE panel (Homo sapiens, UniProt P23458)", "outline": "as §1"}, "[12]": {"target": "protein kinases of the Z-LYTE panel (Homo sapiens, UniProt Q8N4C8)", "outline": "as §1"}, "[13]": {"target": "protein kinases of the Z-LYTE panel (Homo sapiens, UniProt P22607)", "sequence (P22607 23-806)": "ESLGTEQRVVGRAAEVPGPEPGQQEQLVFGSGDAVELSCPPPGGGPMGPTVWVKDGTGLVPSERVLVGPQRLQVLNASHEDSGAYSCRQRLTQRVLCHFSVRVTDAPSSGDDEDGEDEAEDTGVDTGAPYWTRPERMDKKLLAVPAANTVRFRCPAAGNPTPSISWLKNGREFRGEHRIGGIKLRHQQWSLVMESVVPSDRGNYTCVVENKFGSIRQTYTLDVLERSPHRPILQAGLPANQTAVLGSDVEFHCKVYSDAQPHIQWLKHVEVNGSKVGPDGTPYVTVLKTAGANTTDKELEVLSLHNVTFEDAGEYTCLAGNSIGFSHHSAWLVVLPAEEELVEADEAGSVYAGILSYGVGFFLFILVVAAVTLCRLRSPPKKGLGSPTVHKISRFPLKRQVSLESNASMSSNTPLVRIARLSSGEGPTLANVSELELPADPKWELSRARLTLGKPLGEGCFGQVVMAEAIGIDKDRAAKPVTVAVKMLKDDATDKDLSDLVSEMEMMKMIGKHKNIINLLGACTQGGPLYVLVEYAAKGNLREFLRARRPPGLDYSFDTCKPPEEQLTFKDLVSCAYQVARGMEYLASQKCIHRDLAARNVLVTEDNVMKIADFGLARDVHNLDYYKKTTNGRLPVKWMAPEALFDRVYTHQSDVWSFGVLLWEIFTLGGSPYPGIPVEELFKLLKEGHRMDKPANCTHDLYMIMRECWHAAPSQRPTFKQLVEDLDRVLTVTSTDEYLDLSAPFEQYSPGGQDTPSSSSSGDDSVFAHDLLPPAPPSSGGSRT", "outline": "as §1"}, "[14]": {"target": "protein kinases of the Z-LYTE panel (Homo sapiens, UniProt P06213)", "outline": "as §1"}}, "note": "Read-outs that look alike come from different tables or passages of the source.", "data": [{"smiles": "CCN1CCN(c2ccc(Nc3cc(Nc4cccc5c4N(C(C)=O)CC5)ccn3)cc2)CC1", "note": "[Compound 1938]", "values": [{"measurement": "inhibition at 1 µM", "setting": "[1]; read-out: % Inhibition Point 1", "value": 0.45, "unit": "%"}, {"measurement": "inhibition at 1 µM", "setting": "[1]; read-out: % Inhibition Point 2", "value": 0.0147, "unit": "%"}, {"measurement": "inhibition at 1 µM", "setting": "[1]; read-out: % Inhibition mean", "value": 0.233, "unit": "%"}, {"measurement": "inhibition at 1 µM", "setting": "[2]; read-out: % Inhibition Point 1", "value": 28, "unit": "%"}, {"measurement": "inhibition at 1 µM", "setting": "[2]; read-out: % Inhibition Point 2", "value": 32, "unit": "%"}, {"measurement": "inhibition at 1 µM", "setting": "[2]; read-out: % Inhibition mean", "value": 30, "unit": "%"}, {"measurement": "inhibition at 1 µM", "setting": "[3]; read-out: % Inhibition Point 1", "value": -27, "unit": "%"}, {"measurement": "inhibition at 1 µM", "setting": "[3]; read-out: % Inhibition Point 2", "value": -3, "unit": "%"}, {"measurement": "inhibition at 1 µM", "setting": "[3]; read-out: % Inhibition mean", "value": -15, "unit": "%"}, {"measurement": "inhibition at 1 µM", "setting": "[4]; read-out: % Inhibition Point 1", "value": 9, "unit": "%"}, {"measurement": "inhibition at 1 µM", "setting": "[4]; read-out: % Inhibition Point 2", "value": 9, "unit": "%"}, {"measurement": "inhibition at 1 µM", "setting": "[4]; read-out: % Inhibition mean", "value": 9, "unit": "%"}, {"measurement": "inhibition at 1 µM", "setting": "[5]; read-out: % Inhibition Point 1", "value": 9, "unit": "%"}, {"measurement": "inhibition at 1 µM", "setting": "[5]; read-out: % Inhibition Point 2", "value": 8, "unit": "%"}, {"measurement": "inhibition at 1 µM", "setting": "[5]; read-out: % Inhibition mean", "value": 8, "unit": "%"}, {"measurement": "inhibition at 1 µM", "setting": "[6]; read-out: % Inhibition Point 1", "value": 5.38, "unit": "%"}, {"measurement": "inhibition at 1 µM", "setting": "[6]; read-out: % Inhibition Point 2", "value": 5, "unit": "%"}, {"measurement": "inhibition at 1 µM", "setting": "[6]; read-out: % Inhibition mean", "value": 5, "unit": "%"}, {"measurement": "inhibition at 1 µM", "setting": "[7]; read-out: % Inhibition Point 1", "value": 8, "unit": "%"}, {"measurement": "inhibition at 1 µM", "setting": "[7]; read-out: % Inhibition Point 2", "value": 7, "unit": "%"}, {"measurement": "inhibition at 1 µM", "setting": "[7]; read-out: % Inhibition mean", "value": 8, "unit": "%"}, {"measurement": "inhibition at 1 µM", "setting": "[8]; read-out: % Inhibition Point 1", "value": 1.74, "unit": "%"}, {"measurement": "inhibition at 1 µM", "setting": "[8]; read-out: % Inhibition Point 2", "value": 3.28, "unit": "%"}, {"measurement": "inhibition at 1 µM", "setting": "[8]; read-out: % Inhibition mean", "value": 2.51, "unit": "%"}, {"measurement": "inhibition at 1 µM", "setting": "[9]; read-out: % Inhibition Point 1", "value": 2.85, "unit": "%"}, {"measurement": "inhibition at 1 µM", "setting": "[9]; read-out: % Inhibition Point 2", "value": 5, "unit": "%"}, {"measurement": "inhibition at 1 µM", "setting": "[9]; read-out: % Inhibition mean", "value": 4, "unit": "%"}, {"measurement": "inhibition at 1 µM", "setting": "[10]; read-out: % Inhibition Point 1", "value": 9, "unit": "%"}, {"measurement": "inhibition at 1 µM", "setting": "[10]; read-out: % Inhibition Point 2", "value": 9.48, "unit": "%"}, {"measurement": "inhibition at 1 µM", "setting": "[10]; read-out: % Inhibition mean", "value": 9, "unit": "%"}, {"measurement": "inhibition at 1 µM", "setting": "[11]; read-out: % Inhibition Point 1", "value": -2, "unit": "%"}, {"measurement": "inhibition at 1 µM", "setting": "[11]; read-out: % Inhibition Point 2", "value": -2, "unit": "%"}, {"measurement": "inhibition at 1 µM", "setting": "[11]; read-out: % Inhibition mean", "value": -2, "unit": "%"}, {"measurement": "inhibition at 1 µM", "setting": "[12]; read-out: % Inhibition Point 1", "value": 28, "unit": "%"}, {"measurement": "inhibition at 1 µM", "setting": "[12]; read-out: % Inhibition Point 2", "value": 31, "unit": "%"}, {"measurement": "inhibition at 1 µM", "setting": "[12]; read-out: % Inhibition mean", "value": 30, "unit": "%"}, {"measurement": "inhibition at 1 µM", "setting": "[13]; read-out: % Inhibition Point 1", "value": 6, "unit": "%"}, {"measurement": "inhibition at 1 µM", "setting": "[13]; read-out: % Inhibition Point 2", "value": 6, "unit": "%"}, {"measurement": "inhibition at 1 µM", "setting": "[13]; read-out: % Inhibition mean", "value": 6, "unit": "%"}, {"measurement": "inhibition at 1 µM", "setting": "[14]; read-out: % Inhibition Point 1", "value": 6.51, "unit": "%"}, {"measurement": "inhibition at 1 µM", "setting": "[14]; read-out: % Inhibition Point 2", "value": 5, "unit": "%"}, {"measurement": "inhibition at 1 µM", "setting": "[14]; read-out: % Inhibition mean", "value": 5.64, "unit": "%"}]}]}
